{
  "source": "PubChem BioAssay AID1259407",
  "about": "(Chemical Carcinogenesis Research Information System (CCRIS), 2018)",
  "test_system": "CCRIS mutagenicity, Ames/micronucleus/aberration tests",
  "test": "CCRIS mutagenicity studies",
  "note": "Active and inactive are the calls of the source. No rule for the calls is given here.",
  "data": [
    {"compound": "COC(=O)Nc1nc2ccccc2[nH]1", "values": [
      {"measurement": "mutagenic call", "setting": "End Point: IN VITRO CHROMOSOMAL ABERRATIONS, Test System: HUMAN PERIPHERAL LYMPHOCYTES, Metabolic Activation: RAT, LIVER, S-9, AROCLOR 1254", "value": "inactive; negative"},
      {"measurement": "mutagenic call", "setting": "End Point: IN VITRO MICRONUCLEUS, Test System: HUMAN PERIPHERAL LYMPHOCYTES, Metabolic Activation: NONE", "value": "active; positive"},
      {"measurement": "mutagenic call", "setting": "End Point: IN VITRO MICRONUCLEUS, Test System: V79 CELLS, Metabolic Activation: NONE", "value": "active; positive"},
      {"measurement": "mutagenic call", "setting": "End Point: In vitro micronucleus, Test System: Mouse lymphoma L5178Y cells, Metabolic Activation: None", "value": "active; positive"},
      {"measurement": "mutagenic call", "setting": "End Point: In vivo micronucleus, Test System: Micronucleated, binucleated and multinucleated hepatocytes, Species: Mouse, Strain/Sex: ddY/Male, Route: Oral", "value": "active; positive for micronucleated, binucleated and multinucleated cells when agent adm"},
      {"measurement": "mutagenic call", "setting": "Test System: AMES SALMONELLA TYPHIMURIUM, Strain/Indicator: TA97, Metabolic Activation: NONE, Method: PREINCUBATION", "value": "inactive; negative"},
      {"measurement": "mutagenic call", "setting": "Test System: AMES SALMONELLA TYPHIMURIUM, Strain/Indicator: TA97, Metabolic Activation: NONE, Method: STANDARD PLATE", "value": "inactive; negative"},
      {"measurement": "mutagenic call", "setting": "Test System: AMES SALMONELLA TYPHIMURIUM, Strain/Indicator: TA97, Metabolic Activation: RAT, LIVER, S-9, PHENOBARBITAL AND BETA-NAPHTHOFLAVONE, Method: PREINCUBATION", "value": "active; positive"},
      {"measurement": "mutagenic call", "setting": "Test System: AMES SALMONELLA TYPHIMURIUM, Strain/Indicator: TA97, Metabolic Activation: RAT, LIVER, S-9, PHENOBARBITAL AND BETA-NAPHTHOFLAVONE, Method: STANDARD PLATE", "value": "inactive; negative"},
      {"measurement": "mutagenic call", "setting": "Test System: AMES SALMONELLA TYPHIMURIUM, Strain/Indicator: TA97A, Metabolic Activation: NONE, Method: STANDARD PLATE", "value": "inactive; negative"},
      {"measurement": "mutagenic call", "setting": "Test System: AMES SALMONELLA TYPHIMURIUM, Strain/Indicator: TA97A, Metabolic Activation: PLANT, HOMOGENATE, S-14, Method: STANDARD PLATE", "value": "inactive; negative"},
      {"measurement": "mutagenic call", "setting": "Test System: AMES SALMONELLA TYPHIMURIUM, Strain/Indicator: TA97A, Metabolic Activation: S-9, Method: STANDARD PLATE", "value": "inactive; negative"},
      {"measurement": "mutagenic call", "setting": "Test System: AMES SALMONELLA TYPHIMURIUM, Strain/Indicator: TA98, Metabolic Activation: HAMSTER, LIVER, S-9, AROCLOR 1254 (10%), Method: PREINCUBATION", "value": "active; positive"},
      {"measurement": "mutagenic call", "setting": "Test System: AMES SALMONELLA TYPHIMURIUM, Strain/Indicator: TA98, Metabolic Activation: NONE, Method: PREINCUBATION", "value": "inactive; negative"},
      {"measurement": "mutagenic call", "setting": "Test System: AMES SALMONELLA TYPHIMURIUM, Strain/Indicator: TA98, Metabolic Activation: PLANT, HOMOGENATE, S-14, Method: STANDARD PLATE", "value": "inactive; negative"},
      {"measurement": "mutagenic call", "setting": "Test System: AMES SALMONELLA TYPHIMURIUM, Strain/Indicator: TA98, Metabolic Activation: RAT, LIVER, S-9, AROCLOR 1254 (10%), Method: PREINCUBATION", "value": "active; positive"},
      {"measurement": "mutagenic call", "setting": "Test System: AMES SALMONELLA TYPHIMURIUM, Strain/Indicator: TA98, Metabolic Activation: RAT, LIVER, S-9, PHENOBARBITAL AND BETA-NAPHTHOFLAVONE, Method: PREINCUBATION", "value": "active; positive"},
      {"measurement": "mutagenic call", "setting": "Test System: AMES SALMONELLA TYPHIMURIUM, Strain/Indicator: TA98, Metabolic Activation: RAT, LIVER, S-9, PHENOBARBITAL AND BETA-NAPHTHOFLAVONE, Method: STANDARD PLATE", "value": "active; positive"},
      {"measurement": "mutagenic call", "setting": "Test System: AMES SALMONELLA TYPHIMURIUM, Strain/Indicator: TA98, Metabolic Activation: RAT, LIVER, S-9, PHENOBARBITONE, Method: PREINCUBATION", "value": "inactive; negative"},
      {"measurement": "mutagenic call", "setting": "Test System: AMES SALMONELLA TYPHIMURIUM, Strain/Indicator: TA98, Metabolic Activation: S-9, Method: STANDARD PLATE", "value": "inactive; negative"},
      {"measurement": "mutagenic call", "setting": "Test System: AMES SALMONELLA TYPHIMURIUM, Strain/Indicator: TA100, Metabolic Activation: HAMSTER, LIVER, S-9, AROCLOR 1254 (10%), Method: PREINCUBATION", "value": "inactive; negative"},
      {"measurement": "mutagenic call", "setting": "Test System: AMES SALMONELLA TYPHIMURIUM, Strain/Indicator: TA100, Metabolic Activation: NONE, Method: PREINCUBATION", "value": "inactive; negative"},
      {"measurement": "mutagenic call", "setting": "Test System: AMES SALMONELLA TYPHIMURIUM, Strain/Indicator: TA100, Metabolic Activation: PLANT, HOMOGENATE, S-14, Method: STANDARD PLATE", "value": "inactive; negative"},
      {"measurement": "mutagenic call", "setting": "Test System: AMES SALMONELLA TYPHIMURIUM, Strain/Indicator: TA100, Metabolic Activation: RAT, LIVER, S-9, AROCLOR 1254 (10%), Method: PREINCUBATION", "value": "inactive; negative"},
      {"measurement": "mutagenic call", "setting": "Test System: AMES SALMONELLA TYPHIMURIUM, Strain/Indicator: TA100, Metabolic Activation: RAT, LIVER, S-9, AROCLOR 1254, Method: STANDARD PLATE", "value": "inactive; negative"},
      {"measurement": "mutagenic call", "setting": "Test System: AMES SALMONELLA TYPHIMURIUM, Strain/Indicator: TA100, Metabolic Activation: RAT, LIVER, S-9, PHENOBARBITAL AND BETA-NAPHTHOFLAVONE, Method: PREINCUBATION", "value": "inactive; negative"}
    ]}
  ]
}
